The results in this text go back to ChEMBL document CHEMBL5523722, “Design, Synthesis, and Activity Evaluation of Novel Benzazole Bifunctional Antifungal Inhibitors with an LDH Carrier” (J Med Chem, 2024).

For test [1], the system named is Candida albicans. Kind of test: microbe, parasite or virus in culture. As to conditions: ATCC SC5314, 64 h.
Description: Antifungal activity against Candida albicans ATCC SC5314 assessed as inhibition of fungal growth incubated for 64 hrs by liquid medium dilution method
Test [2] has as its system Nakaseomyces glabratus. Kind of test: microbe, parasite or virus in culture. As to conditions: 64 h.
Description: Antifungal activity against Candida glabrata assessed as inhibition of fungal growth incubated for 64 hrs by liquid medium dilution method
Test [3] has as its system Candida tropicalis. Kind of test: microbe, parasite or virus in culture. As to conditions: ATCC 1369, 64 h.
Description: Antifungal activity against Candida tropicalis ATCC 1369 assessed as inhibition of fungal growth incubated for 64 hrs by liquid medium dilution method
Test [4] has as its system Cryptococcus neoformans. Description: microbe, parasite or virus in culture. As to conditions: ZKCC 2209, 64 h.
Description: Antifungal activity against Cryptococcus neoformans ZKCC 2209 assessed as inhibition of fungal growth incubated for 64 hrs by liquid medium dilution method
Test [5] deals with Aspergillus fumigatus. Description: microbe, parasite or virus in culture. As to conditions: KM8001, 64 h.
Description: Antifungal activity against Aspergillus fumigatus KM8001 assessed as inhibition of fungal growth incubated for 64 hrs by liquid medium dilution method
The target in test [6] is Lanosterol 14-alpha demethylase (Candida albicans (strain SC5314 / ATCC MYA-2876) (Yeast), UniProt P10613).
Sequence of Lanosterol 14-alpha demethylase (P10613 whole entry): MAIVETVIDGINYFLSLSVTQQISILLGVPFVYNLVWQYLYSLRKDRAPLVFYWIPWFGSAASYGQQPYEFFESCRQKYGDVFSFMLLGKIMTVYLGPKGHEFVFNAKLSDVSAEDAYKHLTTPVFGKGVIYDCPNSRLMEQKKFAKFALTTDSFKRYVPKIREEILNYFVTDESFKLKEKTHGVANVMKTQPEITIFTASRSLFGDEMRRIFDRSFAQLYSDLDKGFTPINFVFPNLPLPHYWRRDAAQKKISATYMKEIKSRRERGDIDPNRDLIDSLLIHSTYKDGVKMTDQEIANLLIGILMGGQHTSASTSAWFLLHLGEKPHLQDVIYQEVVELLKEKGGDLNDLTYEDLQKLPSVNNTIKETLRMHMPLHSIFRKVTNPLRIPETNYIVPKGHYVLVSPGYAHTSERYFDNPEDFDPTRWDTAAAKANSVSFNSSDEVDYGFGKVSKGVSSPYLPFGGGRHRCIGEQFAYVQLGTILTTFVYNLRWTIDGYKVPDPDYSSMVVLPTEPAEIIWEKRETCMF
Description: Inhibition of candida albicans CYP51 14alpha demethylase activity incubated for 30 mins by HPLC analysis
Test [7] deals with Candida albicans. Description: microbe, parasite or virus in culture. As to conditions: CaR, 64 h.
Description: Antifungal activity against fluconazole-resistant Candida albicans CaR assessed as inhibition of fungal growth incubated for 64 hrs by liquid medium dilution method
The test system of test [8] is Candida albicans. Description: microbe, parasite or virus in culture. As to conditions: 17#, 64 h.
Description: Antifungal activity against fluconazole-resistant Candida albicans 17# assessed as inhibition of fungal growth incubated for 64 hrs by liquid medium dilution method
For test [9], the system named is Candida albicans. Kind of test: microbe, parasite or virus in culture. As to conditions: Candida albicans, 632, 64 h.
Description: Antifungal activity against fluconazole-resistant Candida albicans 632 assessed as inhibition of fungal growth incubated for 64 hrs by liquid medium dilution method
The subject of test [10] is Candida albicans. Description: microbe, parasite or virus in culture. As to conditions: Candida albicans, 901, 64 h.
Description: Antifungal activity against fluconazole-resistant Candida albicans 901 assessed as inhibition of fungal growth incubated for 64 hrs by liquid medium dilution method
In test [11] the test system is Candida albicans. Kind of test: microbe, parasite or virus in culture. As to conditions: Candida albicans, 904, 64 h.
Description: Antifungal activity against fluconazole-resistant Candida albicans 904 assessed as inhibition of fungal growth incubated for 64 hrs by liquid medium dilution method

pIC50: −log10 of the molar value. ≈ marks a conversion by molar mass, not a printed value. A value given as a limit tells only on which side of the number the result lay.

In the case of `Cc1c(CN2CCCC(C(=O)NCC(Cc3ccccc3)Cn3cncn3)C2)cccc1-c1ccccc1` (centres undefined), the MIC50 in test [1] was 0.25 µg/mL (≈ 0.492 µM); in test [2], 0.5 µg/mL (≈ 0.985 µM); in test [3], 0.5 µg/mL (≈ 0.985 µM); in [4] it was no less than 8 µg/mL; in test [5], no less than 8 µg/mL.
Consider `O=C(NCC(Cc1ccccc1)Cn1cncn1)C1CCCN(Cc2ccc(-c3ccccc3)cc2)C1` (centres undefined), for which the MIC50 is 0.5 µg/mL (≈ 1.01 µM) in test [1]; 2 µg/mL (≈ 4.05 µM) in test [2]; 1 µg/mL (≈ 2.03 µM) in test [3]; 2 µg/mL (≈ 4.05 µM) in [4]; 4 µg/mL (≈ 8.1 µM) in test [5].
In the case of `Cc1c(CN2CCC(CNCC(O)(Cn3cncn3)c3ccc(Cl)cc3Cl)CC2)cccc1-c1ccccc1` (centres undefined), the MIC50 in test [1] is 2 µg/mL (≈ 3.54 µM); in [2], 1 µg/mL (≈ 1.77 µM); in test [3] it was 2 µg/mL (≈ 3.54 µM); in test [4] it was 2 µg/mL (≈ 3.54 µM); in test [5], no less than 8 µg/mL.
On to `Cc1c(CN2CCCC(C(=O)NCC(Cc3ccccc3)Cn3ccnc3)C2)cccc1-c1ccccc1` (centres undefined), for which the MIC50 in test [1] is 0.5 µg/mL (≈ 0.987 µM); in test [2], 2 µg/mL (≈ 3.95 µM); in test [3], 1 µg/mL (≈ 1.97 µM); in test [4], 2 µg/mL (≈ 3.95 µM); in test [5], 4 µg/mL (≈ 7.89 µM).
As for `Cc1c(CN2CCCC(C(=O)NCC(O)(Cn3ccnc3)c3ccc(Cl)cc3Cl)C2)cccc1-c1ccccc1` (centres undefined), the MIC50 in [1] was 0.5 µg/mL (≈ 0.866 µM); in [2], 1 µg/mL (≈ 1.73 µM); in test [3], 0.5 µg/mL (≈ 0.866 µM); in [4] it was no less than 8 µg/mL; in test [5], no less than 8 µg/mL.
Consider `Cc1c(CN2CCCC(C(=O)NCC(O)(Cn3ccnc3)c3ccc(Cl)cc3)C2)cccc1-c1ccccc1` (centres undefined), for which the MIC50 in test [1] was 1 µg/mL (≈ 1.84 µM); in test [2], 1 µg/mL (≈ 1.84 µM); in test [3], 2 µg/mL (≈ 3.68 µM); in test [4] it was 4 µg/mL (≈ 7.36 µM); in test [5], no less than 8 µg/mL.
With `Cc1c(CN2CCC(NCC(O)(Cn3ccnc3)c3ccc(Cl)cc3)CC2)cccc1-c1ccccc1` (centres undefined), the MIC50 in [1] is 0.25 µg/mL (≈ 0.485 µM); in test [2], 1 µg/mL (≈ 1.94 µM); in [3], 0.5 µg/mL (≈ 0.971 µM); in [4], 2 µg/mL (≈ 3.88 µM); in test [5] it was 4 µg/mL (≈ 7.77 µM).
Regarding `Cc1c(CN2CCC(NCC(O)(Cn3ccnc3)c3ccc(Cl)cc3Cl)CC2)cccc1-c1ccccc1` (centres undefined), the pIC50 (usually the IC50 on a negative log10 scale, so that one unit is a factor of ten) in test [6] was 6.80. Besides, the MIC50 in test [1] was determined as 0.125 µg/mL (≈ 0.227 µM); in test [2], 0.5 µg/mL (≈ 0.91 µM); in [3] it was 0.5 µg/mL (≈ 0.91 µM); in test [4], 1 µg/mL (≈ 1.82 µM); in test [5] it was 4 µg/mL (≈ 7.28 µM); in test [7] it was 4 µg/mL (≈ 7.28 µM). Moreover, the MIC50 stood at 2 µg/mL (≈ 3.64 µM) in test [8], 2 µg/mL (≈ 3.64 µM) in [9], 4 µg/mL (≈ 7.28 µM) in test [10] and 2 µg/mL (≈ 3.64 µM) in test [11].
Take `Cc1c(CN2CCC(CNCC(O)(Cn3ccnc3)c3ccc(Cl)cc3)CC2)cccc1-c1ccccc1` (centres undefined): the MIC50 in test [1] is 1 µg/mL (≈ 1.89 µM); in [2], 0.5 µg/mL (≈ 0.945 µM); in test [3] it was 1 µg/mL (≈ 1.89 µM); in test [4], 2 µg/mL (≈ 3.78 µM); in test [5], no less than 8 µg/mL.
Take `O=C(NCC(Cc1ccccc1)Cn1ccnc1)C1CCCN(Cc2ccc(-c3ccccc3)cc2)C1` (centres undefined): the MIC50 in test [1] was 1 µg/mL (≈ 2.03 µM); in test [2], 0.5 µg/mL (≈ 1.01 µM); in test [3], 2 µg/mL (≈ 4.06 µM); in test [4] it was 4 µg/mL (≈ 8.12 µM); in test [5], no less than 8 µg/mL.
For `Cc1c(CN2CCC(NCC(O)(Cn3cncn3)c3ccc(Cl)cc3)CC2)cccc1-c1ccccc1` (centres undefined), the pIC50 in test [6] is 6.95. In addition, the MIC50 came to 0.25 µg/mL (≈ 0.484 µM) in test [1]; 0.25 µg/mL (≈ 0.484 µM) in [2]; 0.25 µg/mL (≈ 0.484 µM) in test [3]; 0.5 µg/mL (≈ 0.969 µM) in test [4]; 2 µg/mL (≈ 3.88 µM) in test [5]; 2 µg/mL (≈ 3.88 µM) in test [7]. Also, the MIC50 is 1 µg/mL (≈ 1.94 µM) in test [8], 1 µg/mL (≈ 1.94 µM) in [9], 2 µg/mL (≈ 3.88 µM) in test [10] and 2 µg/mL (≈ 3.88 µM) in [11].
On to `Cc1c(CN2CCC(NCC(O)(Cn3cncn3)c3ccc(Cl)cc3Cl)CC2)cccc1-c1ccccc1` (centres undefined), for which the MIC50 in test [1] stood at 0.5 µg/mL (≈ 0.908 µM); in test [2], 1 µg/mL (≈ 1.82 µM); in test [3] it was 2 µg/mL (≈ 3.63 µM); in test [4] it was 2 µg/mL (≈ 3.63 µM); in test [5] it was 4 µg/mL (≈ 7.27 µM).
In the case of `Cc1c(CN2CCC(CNCC(O)(Cn3cncn3)c3ccc(Cl)cc3)CC2)cccc1-c1ccccc1` (centres undefined), the MIC50 in [1] was 0.5 µg/mL (≈ 0.943 µM); in [2], 1 µg/mL (≈ 1.89 µM); in test [3] it was 0.5 µg/mL (≈ 0.943 µM); in [4] it was 4 µg/mL (≈ 7.55 µM); in test [5], no less than 8 µg/mL.
In [6], `Cc1c(CN2CCCC(C(=O)NCC(O)(Cn3cncn3)c3ccc(Cl)cc3)C2)cccc1-c1ccccc1` (centres undefined) showed a pIC50 of 6.59. Besides, the MIC50 is 0.25 µg/mL (≈ 0.459 µM) in test [1]; 0.5 µg/mL (≈ 0.919 µM) in test [2]; 0.25 µg/mL (≈ 0.459 µM) in [3]; 1 µg/mL (≈ 1.84 µM) in test [4]; 4 µg/mL (≈ 7.35 µM) in test [5]; no less than 8 µg/mL in test [7]. Further, the MIC50 is 2 µg/mL (≈ 3.68 µM) in test [8], 4 µg/mL (≈ 7.35 µM) in test [9], no less than 8 µg/mL in [10] and 4 µg/mL (≈ 7.35 µM) in test [11].
Take `Cc1c(CN2CCCC(C(=O)NCC(O)(Cn3cncn3)c3ccc(Cl)cc3Cl)C2)cccc1-c1ccccc1` (centres undefined): the MIC50 is 0.5 µg/mL (≈ 0.864 µM) in test [1]; 0.5 µg/mL (≈ 0.864 µM) in [2]; 2 µg/mL (≈ 3.46 µM) in [3]; 4 µg/mL (≈ 6.91 µM) in [4]; no less than 8 µg/mL in test [5].
In the case of `Cc1c(CN2CCC(CNCC(O)(Cn3ccnc3)c3ccc(Cl)cc3Cl)CC2)cccc1-c1ccccc1` (centres undefined), the MIC50 in test [1] turned out to be 1 µg/mL (≈ 1.77 µM); in test [2], 0.5 µg/mL (≈ 0.887 µM); in test [3], 2 µg/mL (≈ 3.55 µM); in test [4], 4 µg/mL (≈ 7.1 µM); in [5], 4 µg/mL (≈ 7.1 µM).
In turn, `OC(Cn1cncn1)(Cn1cncn1)c1ccc(F)cc1F` [FLUCONAZOLE] gave a negative-log IC50 (pIC50) in test [6] of 7.01. Also, the MIC50 in test [1] is 0.5 µg/mL (≈ 1.63 µM); in test [2] it was 0.5 µg/mL (≈ 1.63 µM); in [3] it was 0.5 µg/mL (≈ 1.63 µM); in [4], 2 µg/mL (≈ 6.53 µM); in test [5], no less than 8 µg/mL; in test [7], no less than 8 µg/mL. Further, the MIC50 in test [8], in [9], in test [10] and in test [11] was no less than 8 µg/mL in each case.
Turning to `CC(=O)N1CCN(c2ccc(OCC3COC(Cn4ccnc4)(c4ccc(Cl)cc4Cl)O3)cc2)CC1` (centres undefined) [KETOCONAZOLE], the MIC50 in test [1] worked out at 0.25 µg/mL (≈ 0.47 µM); in [2], 0.5 µg/mL (≈ 0.941 µM); in [3] it was 0.25 µg/mL (≈ 0.47 µM); in test [4] it was 1 µg/mL (≈ 1.88 µM); in test [5], 4 µg/mL (≈ 7.53 µM); in test [7], 4 µg/mL (≈ 7.53 µM). Moreover, the MIC50 in [8] was 2 µg/mL (≈ 3.76 µM); in test [9], no less than 8 µg/mL; in test [10], 4 µg/mL (≈ 7.53 µM); in test [11], no less than 8 µg/mL.
